Source: patent US20110152243A1, “NOVEL THIENOPYRROLE COMPOUNDS” (ABBOTT LABORATORIES, priority 2009, published 2011)

Biological target: PKCθ (Homo sapiens, UniProt Q04759)
Assay: PKCθ enzyme data at 1 mM ATP
Assay type: biochemical

PKCθ, sequence (Q04759 whole entry): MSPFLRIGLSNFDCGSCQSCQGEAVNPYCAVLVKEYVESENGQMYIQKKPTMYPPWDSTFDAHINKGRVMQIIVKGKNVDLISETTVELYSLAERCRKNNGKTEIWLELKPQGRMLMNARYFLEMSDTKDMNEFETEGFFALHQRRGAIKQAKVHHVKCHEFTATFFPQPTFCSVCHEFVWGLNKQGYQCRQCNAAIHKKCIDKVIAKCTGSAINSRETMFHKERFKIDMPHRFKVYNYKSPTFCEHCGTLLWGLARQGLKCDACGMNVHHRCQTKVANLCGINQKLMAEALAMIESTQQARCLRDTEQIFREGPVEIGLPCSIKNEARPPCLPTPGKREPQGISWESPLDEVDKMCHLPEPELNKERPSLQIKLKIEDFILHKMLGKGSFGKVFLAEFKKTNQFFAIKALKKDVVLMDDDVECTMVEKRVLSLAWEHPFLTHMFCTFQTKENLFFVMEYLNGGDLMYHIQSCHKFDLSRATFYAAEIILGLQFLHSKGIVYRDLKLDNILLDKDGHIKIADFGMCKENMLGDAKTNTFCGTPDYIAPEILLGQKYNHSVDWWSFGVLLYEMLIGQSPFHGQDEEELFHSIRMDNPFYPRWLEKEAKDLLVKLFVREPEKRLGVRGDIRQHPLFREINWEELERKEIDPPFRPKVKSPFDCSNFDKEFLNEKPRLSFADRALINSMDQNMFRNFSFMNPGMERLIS

SMILES	IC50 [nM]
O=C1NC(=O)C(c2c[nH]c3sccc23)=C1c1nc(N2CCn3cnc(CO)c3C2)nc2ccccc12 [E.1.50]	< 100
O=C1NC(=O)C(c2c[nH]c3ccsc23)=C1c1nc(N2CCN3CCCC3C2)nc2ccccc12 (stereo not shown) [E.2.10]	< 100
CN(C)CC1CCn2c(c(C3=C(c4c[nH]c5sccc45)C(=O)NC3=O)c3ccccc32)C1 (stereo not shown) [Example #2, 3-(8-((Dimethylamino)methyl)-6,7,8,9-tetrahydropyrido[1,2-a]indol-10-yl)-4-(6H-thieno[2,3-b]pyrrol-4-yl)-1H-pyrrole-2,5-dione]	< 100
O=C1NC(=O)C(c2c[nH]c3sccc23)=C1c1nc(N2CCC23CCNCC3)nc2ccccc12 [E.1.36]	< 100
CC(C1CCN(c2nc(C3=C(c4c[nH]c5sccc45)C(=O)NC3=O)c3ccccc3n2)CC1)N(C)C (stereo not shown) [E.1.12]	100 to 500
CN1CC2CCN(c3nc(C4=C(c5c[nH]c6sccc56)C(=O)NC4=O)c4ccccc4n3)CC2C1 (stereo not shown) [E.1.39]	< 100
CN(C)CC1CCN(c2nc(C3=C(c4c[nH]c5sccc45)C(=O)NC3=O)c3ccccc3n2)CC1 [E.1.5]	< 100
O=C1NC(=O)C(c2nc(N3CCN4CCC[C@@H]4C3)nc3cccc(F)c23)=C1c1c[nH]c2ccsc12 [F.3.2, (R)-3-(5-Fluoro-2-(hexahydropyrrolo[1,2-a]pyrazin-2(1H)-yl)quinazolin-4-yl)-4-(4H-thieno[3,2-b]pyrrol-6-yl)-1H-pyrrole-2,5-dione]	< 100
O=C1NC(=O)C(c2c[nH]c3ccsc23)=C1c1nc(N2CC3CNCC3C2)nc2ccccc12 (stereo not shown) [G.1.3]	500 to 1000
CN1CCN(c2nc(C3=C(c4c[nH]c5ccsc45)C(=O)NC3=O)c3ccsc3n2)CC1 [F.3.4]	< 100
CNC1(C)CCN(c2nc(C3=C(c4c[nH]c5sccc45)C(=O)NC3=O)c3ccccc3n2)CC1 [E.1.42]	100 to 500
Cc1cccc2c(C3=C(c4c[nH]c5sccc45)C(=O)NC3=O)nc(N3CCN(C)CC3)nc12 [F.4.32]	500 to 1000
O=C1NC(=O)C(c2c[nH]c3sccc23)=C1c1nc(N2CCN3CCC[C@H]3C2)nc2ccccc12 [E.1.44]	< 100
CN1CCC(Cc2cn(C3=C(c4c[nH]c5sccc45)C(=O)NC3=O)c3ccccc23)CC1 [F.4.37]	< 100
CN1CCN(c2nc(C3=C(c4c[nH]c5ccsc45)C(=O)NC3=O)c3ccccc3n2)CC1 [F.1.2, 3-(2-(4-Methylpiperazin-1-yl)quinazolin-4-yl)-4-(4H-thieno[3,2-b]pyrrol-6-yl)-1H-pyrrole-2,5-dione]	< 100
O=C1NC(=O)C(c2c[nH]c3sccc23)=C1c1nc(N2CCC(N3CCC3)CC2)nc2ccccc12 [E.1.13]	< 100
COCCN1CCC(Cn2nc(C3=C(c4c[nH]c5sccc45)C(=O)NC3=O)c3ccccc32)C1 (stereo not shown) [F.4.26]	100 to 500
CCC1(N)CCN(c2nc(C3=C(c4c[nH]c5sccc45)C(=O)NC3=O)c3ccccc3n2)CC1 [E.1.43]	< 100
Cc1nccn1CC1CCN(c2nc(C3=C(c4c[nH]c5sccc45)C(=O)NC3=O)c3ccccc3n2)CC1 [E.1.3]	100 to 500
O=C1NC(=O)C(c2c[nH]c3sccc23)=C1c1nc(N2CCN3C(=O)OCC3C2)nc2ccccc12 (stereo not shown) [E.1.15]	500 to 1000
O=C1NC(=O)C(c2c[nH]c3sccc23)=C1c1nc(N2CC[C@@H]3NCC[C@@H]3C2)nc2ccccc12 (relative stereo) [G.1.19]	< 100
Cc1nnc2n1CCN(c1nc(C3=C(c4c[nH]c5sccc45)C(=O)NC3=O)c3ccccc3n1)C2 [E.1.40]	< 100
O=C1NC(=O)C(c2c[nH]c3sccc23)=C1c1nc(N2CCn3ncnc3C2)nc2ccccc12 [E.1.38]	100 to 500
CN1CCN(c2nc(C3=C(c4c[nH]c5sccc45)C(=O)NC3=O)c3ccsc3n2)CC1 [F.4.2, 3-(2-(4-Methylpiperazin-1-yl)thieno[2,3-d]pyrimidin-4-yl)-4-(6H-thieno[2,3-b]pyrrol-4-yl)-1H-pyrrole-2,5-dione]	< 100
O=C1NC(=O)C(c2c[nH]c3sccc23)=C1c1nc(N2CCn3c(cnc3CO)C2)nc2ccccc12 [E.1.48]	< 100
CCc1ncc2n1CCN(c1nc(C3=C(c4c[nH]c5sccc45)C(=O)NC3=O)c3ccccc3n1)C2 [E.1.47]	< 100
CN1CCN(c2nc(C3=C(c4c[nH]c5ccsc45)C(=O)NC3=O)c3c(F)cccc3n2)CC1 [F.3.1, 3-(5-Fluoro-2-(4-methylpiperazin-1-yl)quinazolin-4-yl)-4-(4H-thieno[3,2-b]pyrrol-6-yl)-1H-pyrrole-2,5-dione]	< 100
O=C1NC(=O)C(c2c[nH]c3sccc23)=C1c1nc(N2CCC3(CCN3)CC2)nc2ccccc12 [E.1.35]	< 100
CN1CCN(c2nc(C3=C(c4c[nH]c5sccc45)C(=O)NC3=O)c3cccn3n2)CC1 [F.4.36]	< 100
O=C1NC(=O)C(c2c[nH]c3sccc23)=C1c1nc(N2CCNCC2)nc2sccc12 [G.1.18]	< 100

The next lines start with the values.

IC50 [nM]	SMILES
500 to 1000	O=C1NC(=O)C(c2c[nH]c3ccsc23)=C1c1nc(NCC2CCCCN2)nc2ccccc12 (stereo not shown) [G.1.9]
100 to 500	COCCN1CCC(Cn2nc(C3=C(c4c[nH]c5sccc45)C(=O)NC3=O)c3ccccc32)CC1 [F.4.21]
< 100	NC1(CO)CCN(c2nc(C3=C(c4c[nH]c5sccc45)C(=O)NC3=O)c3ccccc3n2)CC1 [E.1.57]
< 100	O=C1NC(=O)C(c2c[nH]c3ccsc23)=C1c1nc(N2CCC(N3CCCCC3)CC2)nc2ccccc12 [E.2.2]
100 to 500	CN(C)CC1CCN(c2nc(C3=C(c4c[nH]c5sccc45)C(=O)NC3=O)c3ccccc3n2)C1 (stereo not shown) [E.1.28]
< 100	CN1CCN(c2nc(C3=C(c4c[nH]c5sccc45)C(=O)NC3=O)c3ccccc3n2)CC1CO (stereo not shown) [E.1.45]
100 to 500	O=C1NC(=O)C(c2c[nH]c3ccsc23)=C1c1nc(N2CCC(N3CCOCC3)CC2)nc2ccccc12 [E.2.5]
< 100	Cc1ccc2nc(N3CCN(C)CC3)nc(C3=C(c4c[nH]c5sccc45)C(=O)NC3=O)c2c1 [F.4.31]
< 100	NC1(CCO)CCN(c2nc(C3=C(c4c[nH]c5sccc45)C(=O)NC3=O)c3ccccc3n2)CC1 [E.1.34]
< 100	O=C1NC(=O)C(c2c[nH]c3sccc23)=C1c1nc(N2CCN3CCC[C@@H]3C2)nc2ccccc12 [E.1.1, (R)-3-(2-(Hexahydropyrrolo[1,2-a]pyrazin-2(1H)-yl)quinazolin-4-yl)-4-(6H-thieno[2,3-b]pyrrol-4-yl)-1H-pyrrole-2,5-dione]
< 100	CC(C)(CO)N1CCN(c2nc(C3=C(c4c[nH]c5sccc45)C(=O)NC3=O)c3ccccc3n2)CC1 [E.1.56]
< 100	CN1CCN(c2nc(C3=C(c4c[nH]c5sccc45)C(=O)NC3=O)c3ccccc3n2)CC1 [F.1.1, 3-(2-(4-Methylpiperazin-1-yl)quinazolin-4-yl)-4-(6H-thieno[2,3-b]pyrrol-4-yl)-1H-pyrrole-2,5-dione]
< 100	O=C1NC(=O)C(c2c[nH]c3sccc23)=C1c1nc(N2CCn3cncc3C2)nc2ccccc12 [E.1.46]
100 to 500	O=C1NC(=O)C(c2c3ccccc3nn2CC2CCNCC2)=C1c1c[nH]c2sccc12 [G.1.16]
500 to 1000	NC(=O)C1CCN(c2nc(C3=C(c4c[nH]c5sccc45)C(=O)NC3=O)c3ccccc3n2)CC1 [E.1.14]
100 to 500	O=C1NC(=O)C(c2c[nH]c3ccsc23)=C1c1nc(N2CCN3C(=O)CCC3C2)nc2ccccc12 (stereo not shown) [E.2.9]
100 to 500	Cc1cc2c(C3=C(c4nc(N5CCN(C)CC5)nc5ccccc45)C(=O)NC3=O)c[nH]c2s1 [F.1.3]
100 to 500	O=C1NC(=O)C(c2c[nH]c3ccsc23)=C1c1nc(N2CCC3(CCCNC3)C2)nc2ccccc12 (stereo not shown) [G.1.6]
100 to 500	O=C1NC(=O)C(c2c[nH]c3sccc23)=C1c1nc(N2CC[C@H](N3CCCC3)[C@H](F)C2)nc2ccccc12 [E.1.29]

IC50 [nM]	SMILES
< 100	O=C1NC(=O)C(c2c[nH]c3ccsc23)=C1c1nc(N2CCC(N3CCCC3)CC2)nc2ccccc12 [E.2.6]
< 100	CN(C)C1CCN(c2nc(C3=C(c4c[nH]c5sccc45)C(=O)NC3=O)c3ccccc3n2)CC1CO (stereo not shown) [E.1.37]
< 100	Cn1cnc2c1CN(c1nc(C3=C(c4c[nH]c5sccc45)C(=O)NC3=O)c3ccccc3n1)CC2 [E.1.53]
< 100	Cn1cnc2c1CCN(c1nc(C3=C(c4c[nH]c5sccc45)C(=O)NC3=O)c3ccccc3n1)C2 [E.1.54]
< 100	CN1CCN(c2nc(C3=C(c4c[nH]c5sccc45)C(=O)NC3=O)c3ccncc3n2)CC1 [F.4.24]
< 100	CC(O)c1ncc2n1CCN(c1nc(C3=C(c4c[nH]c5sccc45)C(=O)NC3=O)c3ccccc3n1)C2 (stereo not shown) [E.1.52]
100 to 500	CN1CCN(c2nc(C3=C(c4c[nH]c5sccc45)C(=O)NC3=O)c3ncccc3n2)CC1 [F.4.25]
< 100	O=C1NC(=O)C(c2nc(N3CCN4CCC[C@@H]4C3)nc3cccc(F)c23)=C1c1c[nH]c2sccc12 [F.4.3, (R)-3-(5-Fluoro-2-(hexahydropyrrolo[1,2-a]pyrazin-2(1H)-yl)quinazolin-4-yl)-4-(6H-thieno[2,3-b]pyrrol-4-yl)-1H-pyrrole-2,5-dione]
100 to 500	C[C@@H]1CN(C2CCN(c3nc(C4=C(c5c[nH]c6sccc56)C(=O)NC4=O)c4ccccc4n3)CC2)C[C@H](C)O1 [E.1.6]
< 100	CN1CCN(C2CCN(c3nc(C4=C(c5c[nH]c6sccc56)C(=O)NC4=O)c4ccccc4n3)CC2)CC1 [E.1.8]
< 100	Cc1ncc2n1CCN(c1nc(C3=C(c4c[nH]c5sccc45)C(=O)NC3=O)c3ccccc3n1)C2 [E.1.26]
< 100	O=C1NC(=O)C(c2c[nH]c3sccc23)=C1c1nc(N2CCN(C3CC3)CC2)nc2ccccc12 [E.1.18]
100 to 500	CN1CCN(c2nc3c(c(C4=C(c5c[nH]c6sccc56)C(=O)NC4=O)n2)CCCC3)CC1 [F.4.16]
< 100	CN1CCC(Cn2nc(C3=C(c4c[nH]c5sccc45)C(=O)NC3=O)c3ccccc32)CC1 [F.4.6]
< 100	CC1(N)CCN(c2nc(C3=C(c4c[nH]c5sccc45)C(=O)NC3=O)c3ccccc3n2)CC1 [G.1.10]
100 to 500	CC(C)(O)c1ncc2n1CCN(c1nc(C3=C(c4c[nH]c5sccc45)C(=O)NC3=O)c3ccccc3n1)C2 [E.1.49]
< 100	O=C1NC(=O)C(c2c[nH]c3sccc23)=C1c1nc(N2CCN3CCCC3C2)nc2ccccc12 (stereo not shown) [F.2.1]
100 to 500	O=C1NC(=O)C(c2c[nH]c3sccc23)=C1c1nc(N2CCn3c(nnc3C(F)(F)F)C2)nc2ccccc12 [E.1.20]
